Key:
EsNMT = experiment: N-alkylation substrate screen using EsNMT (LC-MS); format: biochemical, Ephedra sinica; parameters: key to N-alkylation of substrate alkaloid compounds, Enzyme EsNMT: −=no detectable quantities of product N-alkylated compound; Trace, +, ++, +++=increasing relative levels of product N-alkylated compound; Trace, +, ++, +++=increasing relative levels of product N-alkylated compound; Trace, +, ++, +++=increasing relative levels of product N-alkylated compound; Trace, +, ++, +++=increasing relative levels of product N-alkylated compound; conditions: for N-alkylation of substrate alkaloid compounds, Enzyme EsNMT: 25 μg protein, 1 mM substrate, 1 mM SAM, 60 mM HEPES pH 8, 16 hours at 37° C., relative level of N-alkylated product by LC-MS; for N-alkylated alkaloid product detected after incubation with EsNMT (SEQ. ID NO: 2): incubated in accordance with Example 1, LC-MS
Experimental: The EsNMT coding sequence was amplified from Ephedra sinica cDNA using gene-specific primers containing restriction sites with Q5 HiFi DNA polymerase (NEB). Restriction digests and ligations (NEB) were carried out to generate a pQE plasmid (Qiagen) for heterologous expression of HIS6-tagged recombinant EsNMT. Protein overexpression was carried out at 18° C. in Escherichia coli SG13009 (Qiagen) grown in lysogeny broth (LB) to which 0.5 mM isopropyl β-D-1-thiogalactopyranoside (IPTG) was added.
(§1) Total soluble protein was extracted from each culture and the recombinant NMTs were purified using TALON cobalt affinity resin (Clontech) followed by desalting and concentration with Amicon Ultra-30 centrifugal filters (EMD Millipore). Protein concentration was determined using the Bradford method, and purity was assessed by SDS-PAGE followed by Coomassie staining.
(§2) Forty-four nitrogenous molecules were screened as potential substrates for EsNMT using a standardized assay (25 μg protein, 1 mM substrate, 1 mM SAM, 60 mM HEPES pH 8, 16 hours at 37° C.). In addition, a representative subset was screened as potential substrates for GfCNMT, GfTNMT and PsRNMT under identical conditions. For each substrate and enzyme combination, negative control assays were carried out using protein heated to 100° C. (boiled) for 20 minutes. Assays were quenched with 9 volumes of methanol, centrifuged to pellet insoluble debris and the supernatants were stored at −20° C. prior to analysis.
(§3) Assay supernatants were analyzed by liquid chromatography-mass spectrometry (LC-MS). LC-MS analysis was performed using a 1200 HPLC coupled with a 6410 triple-quadrupole MS (Agilent). Samples (2 μl) were injected onto a Luna […] Phenyl-Hexyl 100 Å HPLC column and analytes were eluted in a gradient of solvent A (0.1% Formic acid, 5% v/v methanol in water) and solvent B (0.1% Formic acid in methanol) at a flow rate of 300 μl per minute. The gradient began at 0% B, reached 35% B by 12 minutes, then increased to 85% B at 14 min and remained at that level until 18 minutes. Subsequently, the mixture returned to 0% B over a period of 3 minutes before a final 6 minute re-equilibration period. Analytes were applied to the mass analyzer using an electrospray ionization probe operating in positive mode with the following condition: capillary voltage, 4000V; fragmentor voltage, 100V, source temperature, 350° C.; nebulizer pressure, 50 PSI; gas flow 10 L/min. Ions were detected in full scan mode where quadrupoles 1 and 2 were set to RF only, whereas the third quadrupole scanned from 100-500 m/z over 525 milliseconds. Substrate acceptance by the enzymes was determined according to the formation of a peak with a 14-m/z increase in mass, corresponding to methylated substrate and a decrease in the substrate peak area, relative to the appropriate boiled control assay.
(§4) Each of the alkaloid substrates shown in Table 1 were incubated with the following N-alkyltransferases: GfCNMT (SEQ. ID NO: 3), gfTNMT (SEQ. ID NO: 4) and Ps RNMT ([…]) and EsNMT (SEQ. ID NO: 2), as described in Example 1. The presence of N-alkylated alkaloid product was detected as described in Examples 1-20. Legend: ND=Not Determined; −=no detectable quantities of product N-alkylated compound; and Trace, +, ++, +++=increasing relative levels of product N-alkylated compound.

GfCNMT = experiment: N-alkylation substrate screen using GfCNMT (LC-MS); format: biochemical, Glaucium flavum; parameters: key: −=no detectable quantities of product N-alkylated compound; Trace, +, ++, +++=increasing relative levels of product N-alkylated compound; Trace, +, ++, +++=increasing relative levels of product N-alkylated compound; Trace, +, ++, +++=increasing relative levels of product N-alkylated compound; Trace, +, ++, +++=increasing relative levels of product N-alkylated compound; conditions: 25 μg protein, 1 mM substrate, 1 mM SAM, 60 mM HEPES pH 8, 16 hours at 37° C.; relative level of N-alkylated product by LC-MS
Experimental: (§5) The GfCNMT, GfTNMT and PsRNMT coding sequences were amplified from Glaucium flavum (GfCNMT and GfTNMT) or Papaver somniferum (PsRNMT) cDNA using gene-specific primers containing attB recombination sites with Q5 HiFi DNA polymerase (NEB). Recombination reactions were carried out using BP and LR Clonase II (Thermo Scientific) to generate individual pDONR221 entry plasmids and, subsequently, individual pHGWA plasmids for heterologous expression of polyhistidine (HIS6)-tagged recombinant GfCNMT, GfTNMT and PsRNMT. Protein overexpression was carried out at 18° C. using E. coli ArcticExpress (Agilent) grown in Studier's autoinduction media.
as §1, §2, §3, §4

GfTNMT = experiment: N-alkylation substrate screen using GfTNMT (LC-MS); format: biochemical, Glaucium flavum; parameters: key: −=no detectable quantities of product N-alkylated compound; Trace, +, ++, +++=increasing relative levels of product N-alkylated compound; Trace, +, ++, +++=increasing relative levels of product N-alkylated compound; Trace, +, ++, +++=increasing relative levels of product N-alkylated compound; Trace, +, ++, +++=increasing relative levels of product N-alkylated compound; conditions: 25 μg protein, 1 mM substrate, 1 mM SAM, 60 mM HEPES pH 8, 16 hours at 37° C.; relative level of N-alkylated product by LC-MS
Experimental: as §5, §1, §2, §3, §4

PsRNMT = experiment: N-alkylation substrate screen using PsRNMT (LC-MS); format: biochemical, Papaver somniferum; parameters: key: −=no detectable quantities of product N-alkylated compound; Trace, +, ++, +++=increasing relative levels of product N-alkylated compound; Trace, +, ++, +++=increasing relative levels of product N-alkylated compound; Trace, +, ++, +++=increasing relative levels of product N-alkylated compound; Trace, +, ++, +++=increasing relative levels of product N-alkylated compound; conditions: 25 μg protein, 1 mM substrate, 1 mM SAM, 60 mM HEPES pH 8, 16 hours at 37° C.; relative level of N-alkylated product by LC-MS
Experimental: as §5, §1, §2, §3, §4

SMILES | N-alkylation of substrate alkaloid compounds, Enzyme EsNMT (EsNMT) | N-alkylation of substrate alkaloid compounds, Enzyme GfCNMT (GfCNMT) | N-alkylation of substrate alkaloid compounds, Enzyme GfTNMT (GfTNMT) | N-alkylation of substrate alkaloid compounds, Enzyme PsRNMT (PsRNMT) | N-alkylated alkaloid product detected after incubation with EsNMT (SEQ. ID NO: 2) (EsNMT)
CC(C)NC[C@H](O)COc1cccc2ccccc12 (racemic) [Propanolol, propanolol, reference compound] | + | ++ | +++ | +++ | 
NCCc1ccccc1 [2-Phenylethaneamine, 2-phenylethan-1-amine] | + | Trace | Trace | − | 
CC(N)Cc1ccccc1 (centres unmarked) [Amphetamine, amphetamine, reference compound] | + | Trace | Trace | − | 
COc1cc2c(cc1O)C(Cc1ccc(O)cc1)NCC2 (centres unmarked) [Coclaurine, coclaurine] | + | +++ | + | ++ | 
COc1ccc2c3c([nH]c2c1)C(C)=NCC3 [Harmaline, harmaline] | + | + | − | − | 
COc1ccc2c(c1)[nH]c1c(C)nccc12 [Harmine, harmine] | − | ++ | − | − | No N-alkylated alkaloid product compounds were detected
NCCc1c[nH]cn1 [Histamine, histamine] | − | − | − | − | No N-alkylated alkaloid product compounds were detected
COc1cc(CCN)cc(OC)c1OC [Mescaline, mescaline] | + | − | − | − | 
NC(=O)c1cccnc1 [Nicotinamide, nicotinamide] | − | − | − | − | No N-alkylated alkaloid product compounds were detected
CC(N)C(O)c1ccccc1 (centres unmarked) [Norephedrine, norephedrine] | + | − | − | − | 
COc1ccc2c(c1OC)C(=O)O[C@@H]2[C@H]1c2c(cc3c(c2OC)OCO3)CCN1C [Noscapine, noscapine, reference compound] | − | Trace | +++ | ++ | No N-alkylated alkaloid product compounds were detected
COc1ccc(C[C@H]2c3cc(O)c(OC)cc3CCN2C)cc1O [S-Reticuline, reticuline] | + | + | ++ | +++ | 
c1cc2c(c3c1C[C@H]1c4cc5c(cc4CCN1C3)OCO5)OCO2 [Stylopine, stylopine] | + | + | + | +++ | 
COc1cc2c(cc1OC)CNCC2 [THQ2, 6,7-dimethoxy-1,2,3,4-tetrahydroisoquinoline] | +++ | +++ | + | + | 
NCCc1c[nH]c2ccccc12 [Tryptamine, tryptamine] | +++ | Trace | Trace | Trace | 
NCCc1ccc(O)cc1 [Tyramine, tyramine] | + | + | − | − | 

From patent publication US20210087593A1, “N-[…] ALKALOID COMPOUNDS” (Willow BioSciences Inc., priority 2017, published 2021)
